Measured values as given in patent US8008337B2, “Azabicyclo[3.2.0] hept-3-yl compounds, a process for their preparation and pharmaceutical compositions containing them” (Les Laboratoires Servier, priority 2009, dated 2011).

What was measured:
Format in all cases: in vivo
Sprague-Dawley rat = experiment: Object recognition in the Sprague-Dawley rat; settings: 3 mg/kg PO 60 minutes before each session, second session 24 hours later
Text: The object recognition test in the Sprague-Dawley rat (Behav. Brain Res., 1988, 31, 47-59) is based on the spontaneous exploratory activity of the animal and has the characteristics of episodic memory in humans. This memory test is sensitive to ageing (Eur. J. Pharmacol., 1997, 325, 173-180) and to cholinergic dysfunctions (Pharm. Biochem. Behav. 1996, 53(2), 277-283) and is based on the differences in the exploration of 2 objects of fairly similar shape—one familiar, the other new. Prior to the test, the animals are habituated to the environment (an enclosure without an object). In the course of a first session, the rats are placed (3 minutes) in the enclosure, in which there are 2 identical objects. The duration of exploration is measured for each object. In the course of the second session (3 minutes), 24 hours later, 1 of the 2 objects is replaced by a new object. The duration of exploration is measured for each object. The assessment criterion is the difference, Delta, expressed in seconds, between the exploration times for the new object and for the familiar object in the course of the second session.

awake Wistar rat = experiment: Electroencephalogram recordings in the awake Wistar rat; settings: 3 mg/kg IP, cortical EEG
Procedure: Electrodes are chronically implanted in adult male Wistar rats, being located at the surface of the frontal and parietal cortex. Cortical electroencephalogram (EEG) recordings are made in the rats placed in cages in a sound-proofed room. The compounds and carriers are administered in randomised manner by the intraperitoneal route at 10 o'clock on the same days with a minimum of 3 days between each administration, allowing each rat to be used as its own control. The absolute power of the slow delta activities (1-4 Hz), which predominate during slow sleep and disappear during wakefulness and paradoxical sleep, is averaged over successive periods of 30 minutes. Over 30 minutes, high and low values for the power of the slow delta activities are signs of […], respectively.

Wistar rat [1] = experiment: Social recognition in the Wistar rat; settings: second encounter after 2 hours
Text: Initially described in 1982 (J. Comp. Physiol., 1982, 96, 1000-1006), the social recognition test has subsequently been proposed by various authors (Psychopharmacology, 1987, 91, 363-368; Psychopharmacology, 1989, 97, 262-268) for studying the mnemocognitive effects of new compounds. The test is based on the natural expression of the olfactory memory of the rat and its natural tendency to forget and allows evaluation of memorisation, by recognition of a young congeneric animal, by an adult rat. A young rat (21 days), taken at random, is placed for 5 minutes in the cage housing an adult rat. With the aid of a video device, the experimenter observes the social recognition behaviour of the adult rat and measures its overall duration. The young rat is then removed from the adult rat's cage and is placed in its own cage until the second introduction. The adult rat is given the compound under test by the intraperitoneal route and, after 2 hours, is again brought into the presence (5 minutes) of the young rat. The social recognition behaviour is then observed again and its duration measured. The assessment criterion is the difference (T2−T1), expressed in seconds, between the “recognition” times of the 2 encounters.

Wistar rat [2] = experiment: Interaction with barbital in the Wistar rat; settings: 10 mg/kg PO 30 minutes before barbital 170 mg/kg IP, sleep measured for 4 hours
Procedure: The objective of this test is to determine the anti-sedative, awakening and/or anti-hypnotic properties of the compounds of the present invention. The rats are placed in individual cages and are given an injection of barbital (170 mg/kg IP). The duration of sleep is then measured for 4 hours after the injection of barbital, determined on the basis of loss of the righting reflex. The compounds of the invention or their carriers are administered by the oral route 30 minutes before the administration of barbital.

[3] = test system: extracellular levels of dopamine; experiment: Intracerebral microdialysis in the striatum of the awake rat; settings: 10 mg/kg i.p., striatum microdialysate, awake Wistar rat
Procedure: Intracerebral microdialysis in the awake rat makes it possible to assess the influence of a compound on the release of neurotransmitters such as dopamine into the extracellular space of small cerebral structures, especially the striatum.
This technique is carried out in two steps: a surgery step (stereotaxic implantation of a cannula-guide carried out on the anaesthetised animal) and a microdialysis step carried out on the awake animal (collection of samples of extracellular cerebral liquid). Male rats of the Wistar strain (280-320 g) are anaesthetised and placed in a stereotaxic apparatus. A guide cannula is implanted in the striatum of the animals according to the following stereotaxic coordinates: antero-posteriority −1 mm, laterality +2.8 mm, depth −3 mm, relative to the bregma, according to the atlas of Paxinos and Watson (1996). One week after the surgery, a microdialysis probe (CMA11, length 4 mm, Phymep) is inserted into the guide cannula. The animals are placed in experimentation cages and the to probe inlet is connected to a pump continuously perfusing artificial cerebrospinal fluid (flow rate 1 μl/min). […] The extracellular levels of dopamine are assessed in each microdialysate using a liquid chromatographic technique coupled with electrochemical detection. The values are expressed as the mean±SEM relative to the baseline values (reference 100%).

NMRI mouse = experiment: Tail suspension test in the NMRI mouse; settings: 10 mg/kg IP, 24 hours and 30 minutes before suspension, 6 minutes
Procedure: The tail suspension test in the mouse (Porsolt et al., Arch. Int. Pharmacodyn., 1987, 288, 11) enables detection of psychopharmacological properties of compounds. NMRI mice are suspended by the tail, with the aid of a piece of adhesive tape, from a hook for 6 minutes: the immobility time is measured automatically with the aid of movement sensors. The animals are treated, by the intraperitoneal route, with the compounds of the invention or their carriers 24 hours and 30 minutes before they are suspended.

Cl.NC(=O)c1ccc(OCCCN2C[C@H]3CC[C@H]3C2)cc1 [Example 1, 4-{3-[(1R,5S)-3-Azabicyclo[3.2.0]hept-3-yl]-propoxy}benzamide hydrochloride]
difference, Delta, between exploration times for the new and the familiar object (Sprague-Dawley rat): ~8 s | duration of reduction in power of the slow delta waves (awake Wistar rat): 120 min | effect on power of the slow delta waves (1-4 Hz) (awake Wistar rat): significant reduction | difference (T2−T1) between recognition times (Wistar rat [1]; 1 mg/kg IP): 24 s | difference (T2−T1) between recognition times (Wistar rat [1]; 3 mg/kg IP): 36 s | reduction of the duration of sleeping caused by barbital (Wistar rat [2]): −81% | increase in endogenous cerebral concentrations of dopamine (in comparison with basal values) [3]: +123% | increase in the immobility time (NMRI mouse): 119%
